Measured values from article PMC6600665, “Identification and Characterization of Approved Drugs and Drug-Like Compounds as Covalent Escherichia coli ClpP Inhibitors” (International Journal of Molecular Sciences, 2019).
“And” between values parts separate entries of the source, which are not always exact repeats. Identical values can stand only once. Peptide text beside a SMILES is read from it.

How the values were obtained:
[1] = molecular target: T1, E. coli ClpP (Escherichia coli, UniProt P0A6G7); assay: Fluorescence-based E. coli ClpP proteolytic activity assay (Suc-LY-AMC), primary screen and dose-response; assay type: biochemical; conditions: for inhibition at 200 µM: read-out: E. coli ClpP inhibition [%] in the primary screen, primary screen, 200 µM; for Inhibition (%) at 200 μM E. coli ClpP: 200 μM compound concentration; for IC50: read-out: E. coli ClpP IC50
T1 construct: His-tag; made in house; host or cells: E. coli SG1146a
Protocol: Briefly, 25 ng/μL of E. coli ClpP dissolved in a buffer containing 100 mM NaCl, 100 mM 4-(2-hydroxyethyl)-1-piperazineethanesulfonic acid (HEPES) pH 7.5, and 0.05% Brij® 35 were transferred into each well. Test compound addition (final concentration 200 µM) was carried out using an Echo® 550 liquid handling system (Labcyte, Sunnyvale, CA, USA). […] Changes in fluorescence (excitation 350 nm, emission 435 nm) were monitored at 1 min intervals at 30 °C over 1 h using an Infinite M1000 microplate reader (Tecan).
The assay was carried out as described above with increasing concentrations of test compounds. Dose-response experiments were done at least 3 times independently, each in technical triplicates.
Calculation of Z prime (Z’) for HTS assay performance was done according to Zhang et al.. Plates were considered for further analyses if Z’ > 0.6 [26].

[2] = test system: HTC-116 cells; assay: in vitro; assay type: cell-based; conditions: for IC50: 48 h incubation, 1:3 dilutions starting from 200 μM, read-out: Cytotoxicity HTC-116 IC50
Protocol: (§1) Potential cell toxicity of the tested compounds was evaluated by ATP quantification using the CellTiter-Glo® luminescent cell viability assay (Promega, Madison, WI, USA). […] After incubation, 20 µL of CellTiter-Glo® reagent were added per well and incubated at room temperature in the dark for another 30 min. Luminescence was quantified by an EnVision multi-plate reader (PerkinElmer, Rodgau, Germany).

[3] = test system: MCF-7 cells; assay: in vitro; assay type: cell-based; conditions: for IC50: 48 h incubation, 1:3 dilutions starting from 200 μM, read-out: Cytotoxicity MCF-7 IC50
Protocol: as §1

[4] = test system: A549 cells; assay: in vitro; assay type: cell-based; conditions: for IC50: 48 h incubation, 1:3 dilutions starting from 200 μM, read-out: Cytotoxicity A549 IC50
Protocol: as §1

[5] = test system: E. coli JW0427 (ΔclpP); assay: Growth delay under nitric oxide stress (DPTA NONOate) in M9 medium, clpP-deficient strain; assay type: cell-based; conditions: for Growth delay in presence of nitric oxide stress: clpP-deficient E. coli, DPTA NONOate, compared with cells without compound
Protocol: (§2) Assessment of E. coli growth delay in presence of nitric oxide stress was carried out following our recently published protocol, which is an adaptation of the method reported by Robinson and Brynildsen to a 96-well plate format. Fresh MHB medium was inoculated with isolated colonies of E. coli BW25-113 or E. coli JW0427-1, grown on Luria Agar, and left overnight in a shaking incubator (250 rpm) at 37 °C. On the following day, the overnight culture was used to inoculate fresh M9 medium (supplemented with 10 mM glucose) 1:100, and was grown until OD600 ~0.3. Afterwards, the culture was transferred into 96-well, flat-bottom, sterile clear plates (#167008, Nunc, VWR). Bacterial OD600 was adjusted to 0.1 with M9 medium (supplemented with 10 mM glucose). Test compounds were transferred into the 96-well plates, followed by addition of the bacterial culture. Nitric oxide stress was induced by addition of 2 mM DPTA NONOate ((Z)-1-[N-(3-aminopropyl)-N-(3-ammoniopropyl)amino]diazen-1-ium-1,2-diolate, Cayman Chemical, Ann Arbor, MI, USA), dissolved in NaOH (final concentration 0.14 mM). Absorbance measurements (600 nm) were done with a Multiskan GO or Varioskan LUX plate reader (Thermo Fisher Scientific, Finland) at hourly intervals for 24 h. Between measurements, plates were incubated in a shaking incubator (500 rpm) at 37 °C.

[6] = test system: E. coli BW25-113 (wild type); assay: Growth delay under nitric oxide stress (DPTA NONOate) in M9 medium, wild type; assay type: cell-based; conditions: M9 minimal medium
Protocol: as §2

[7] = molecular target: T1, E. coli ClpP; assay: Surface plasmon resonance binding to immobilized ClpP; conditions: 80 µM, injected over 7 min, 30 min dissociation
Protocol: E. coli ClpP (80 μg/mL) protein was immobilized, using amine coupling (SPR-AS-HCA-03, Bruker Daltonics Inc., Billerica, MA, USA), onto the surface of the sensor chip of a SIERRA SPR-16 instrument (Bruker Daltonics GmbH, Bremen, Germany). ClpP protein was dissolved in acetate at pH 4. The running buffer contained 150 mM NaCl, 10 mM Hepes, 3 mM EDTA, and 0.05% (v/v) Tween-20. The flow rate for protein immobilization was 10 μL/min. Binding experiments were carried out using running buffer with the addition of 0.8% (v/v) of DMSO and 80 µM test substance (flow rate of 20 μL/min for 7 min and up to 30 min of dissociation time). […] SPR data were analyzed using the Analyzer 3 software (Bruker Daltonics GmbH), which includes algorithms for subtracting reference signals and accounting for non-specific interactions between the solvent and the sensor chip surface.

[8] = molecular target: T2, bovine α-chymotrypsin (Bos taurus, UniProt P00766); assay: Serine protease selectivity assay with bovine α-chymotrypsin (Suc-LY-AMC); assay type: biochemical; conditions: 200 μM compound concentration
T2 construct: purchased Sigma-Aldrich C4129
Protocol: Compound selectivity was assessed using bovine α-chymotrypsin (#C4129, Sigma-Aldrich, St. Louis, MO, USA) at 200 µM. The assay was carried out as described above, except that 1 ng/μL of α-chymotrypsin and 100 μM of Suc-LY-AMC substrate were dissolved in a buffer containing 150 mM NaCl, 10 mM CaCl2, 50 mM Tris-HCl, and 0.05% Brij® 35.

[9] = dose-response, 1:3 dilution starting from 200 μM, substrate Suc-LY-AMC

T1 sequence (P0A6G7 15-207): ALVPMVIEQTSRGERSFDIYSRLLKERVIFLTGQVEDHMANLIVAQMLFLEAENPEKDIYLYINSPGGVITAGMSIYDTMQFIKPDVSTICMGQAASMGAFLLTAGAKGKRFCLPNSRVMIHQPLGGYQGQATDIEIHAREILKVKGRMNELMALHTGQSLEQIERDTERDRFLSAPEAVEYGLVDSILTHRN

## O=C(O)C1CCCCC1C(=O)Nc1ccc(S(=O)(=O)NC2CCCCC2)cc1 (stereo not shown) [2-({4-[(cyclohexylamino)sulfonyl]anilino}carbonyl)cyclohexanecarboxylic acid]
[1]; primary screen, 200 µM
  E. coli ClpP inhibition [%] in the primary screen: 72.93%

## O=C(CCC1CCCC1)NCCN1CCOCC1 [3-cyclopentyl-N-[2-(4-morpholinyl)ethyl]propanamide]
[1]; primary screen, 200 µM
  E. coli ClpP inhibition [%] in the primary screen: 84.44%

## CCc1ccc(/C=C2/SC(=S)NC2=O)cc1 [10058-F4]
[1]; primary screen, 200 µM
  E. coli ClpP inhibition [%] in the primary screen: 72.82%

## COC(=O)N[C@H](C(=O)N[C@@H](Cc1ccccc1)[C@@H](O)CN(Cc1ccc(-c2ccccn2)cc1)NC(=O)[C@@H](NC(=O)OC)C(C)(C)C)C(C)(C)C [Atazanavir]
[1]
  inhibition at 200 µM: 85%

## O=C(O)CCNC(=O)c1ccc(/N=N/c2ccc(O)c(C(=O)O)c2)cc1 [Balsalazide]
[1]
  inhibition at 200 µM: 76.5%

## O=C(/C=C/c1ccc(O)cc1)CC(=O)/C=C/c1ccc(O)cc1 [Bisdemethoxycurcumin]
[1]
  inhibition at 200 µM: 76.5%

## N.N.[Cl][Pt][Cl] [Cisplatin, cisplatin]
[2]
  IC50: 913 µM
[3]
  IC50: 4.52 µM
[4]
  IC50: 86.7 µM
[5]
  Growth delay in presence of nitric oxide stress: significantly longer growth delay
[1]
  Inhibition (%) at 200 μM E. coli ClpP: 96.5%
[1]; 200 μM, cisplatin was a hit in both screened libraries, second value of the cell
  Inhibition (%) at 200 μM E. coli ClpP, second value: 98.7%
[1]; [9]
  IC50: 31 µM
[1]; primary screen, 200 µM
  E. coli ClpP inhibition [%] in the primary screen: 96.54%
[1]; primary screen, 200 µM, cisplatin present in two libraries (SCREEN-WELL, LOPAC1280), second value
  E. coli ClpP inhibition [%] in the primary screen, second library: 98.67%
[1]; primary screen, 200 µM, listed as cisplatin
  E. coli ClpP inhibition [%] in the primary screen: > 90%
[6]; WT E. coli, 50 μM compound plus DPTA NONOate
  Growth arrest in presence of DPTA NONOate: ~ 10 h
[6]; WT E. coli, 50 μM compound
  Bacterial growth in absence of NO• stress: comparable to the untreated bacteria
[6]; WT E. coli, 100 μM compound
  Bacterial growth in absence of NO• stress: affected bacterial growth
[7]
  SPR signal (resonance units, RU): high RU values

## NCCCN(CCCN)/[N+]([O-])=N/O [DPTA NONOate, (Z)-1-[N-(3-aminopropyl)-N-(3-ammoniopropyl)amino]diazen-1-ium-1,2-diolate]
[5]; ΔclpP E. coli, 2 mM DPTA NONOate, no test compound, M9 minimal medium
  Growth arrest by the NO• donor alone: ~ 4 h
[6]; wild-type strain, 2 mM DPTA NONOate, no test compound
  Growth arrest by the NO• donor alone: ~ 3 h

## CCOC(=O)[C@@H](N)CCC(=O)N[C@@H](CSCc1ccccc1)C(=O)N[C@@H](C(=O)OCC)c1ccccc1 [Ezatiostat]
[1]; primary screen, 200 µM
  E. coli ClpP inhibition [%] in the primary screen: 88.80%

## O=c1c(O)c(-c2cc(O)c(O)c(O)c2)oc2cc(O)cc(O)c12 [Myricetin]
[1]
  inhibition at 200 µM: 76%

## CC(=O)Oc1ccccc1C(=O)Nc1ncc([N+](=O)[O-])s1 [Nitazoxanide]
[1]
  inhibition at 200 µM: 80%

## CC1=C(/C=C/C(C)=C/C=C/C(C)=C/C(=O)Nc2ccc(O)cc2)C(C)(C)CCC1 [Retinoic acid p-hydroxyanilide]
[1]; primary screen, 200 µM
  E. coli ClpP inhibition [%] in the primary screen: 74.12%

## CO[C@H]1/C=C/O[C@@]2(C)Oc3c(C)c(O)c4c(O)c(c(/C=N/N5CCN(C6CCCC6)CC5)c(O)c4c3C2=O)NC(=O)/C(C)=C\C=C\[C@H](C)[C@H](O)[C@@H](C)[C@@H](O)[C@@H](C)[C@H](OC(C)=O)[C@@H]1C [Rifapentine]
[1]
  inhibition at 200 µM: 71.5%

## C[n+]1ccccc1CC(=O)c1ccc(Br)cc1.[I-] [S 24795]
[1]; primary screen, 200 µM
  E. coli ClpP inhibition [%] in the primary screen: 76.27%

## O=C(O)Cn1c(C(=O)Nc2nc(-c3ccccc3Cl)cs2)cc2ccccc21 [SR 27897 hydrate]
[1]; primary screen, 200 µM
  E. coli ClpP inhibition [%] in the primary screen: 84.71%

## O=C(O)c1cc(/N=N/c2ccc(S(=O)(=O)Nc3ccccn3)cc2)ccc1O [Sulfasalazine]
[1]
  inhibition at 200 µM: 77.3%

## CCN(CC)CCNC(=O)c1c(C)[nH]c(/C=C2\C(=O)Nc3ccc(F)cc32)c1C [Sunitinib Malate]
[1]
  inhibition at 200 µM: 80.7%

## N#CC(C#N)=Cc1ccc(O)c(O)c1 [Tyrphostin 23]
[1]
  inhibition at 200 µM: 79.3%

## N#CC(C#N)=C(N)/C(C#N)=C/c1cc(O)c(O)c(O)c1 [Tyrphostin 51]
[1]
  inhibition at 200 µM: 72.8%

## CC(C)C[C@H](NC(=O)OCc1ccccc1)C(=O)N[C@@H](Cc1ccc(O)cc1)C(=O)CCl [Z-LY-CMK, benzyloxycarbonyl-leucyl-tyrosine chloromethyl ketone] (HELM PEPTIDE1{[O=C(OCc1ccccc1)[*:2]].L.Y.[ClC[*:1]]}$$$$V2.0)
[2]
  IC50: 3.54 µM
[2]; HTC-116
  Cytotoxicity HTC-116 Ratio (IC50 cytotoxicity/IC50 ClpP): 0.25
[3]
  IC50: 0.05 µM
  Cytotoxicity MCF-7 Ratio (IC50 cytotoxicity/IC50 ClpP): 0
[4]
  IC50: 7.15 µM
  Cytotoxicity A549 Ratio (IC50 cytotoxicity/IC50 ClpP): 0.51
[1]
  Inhibition (%) at 200 μM E. coli ClpP: 98.6%
[1]; [9]
  IC50: 14 µM
[7]
  Covalent / irreversible binding to ClpP by SPR: irreversibly binding

## N.N.[Cl-].[Cl][Pt+].c1ccncc1 [cDPCP]
[8]
  Inhibition (%) at 200 μM α-Chymotrypsin: 84.7%
[2]
  IC50: 283 µM
[3]
  IC50: 3.27 µM
  Cytotoxicity MCF-7 Ratio (IC50 cytotoxicity/IC50 ClpP): 0.13
[4]
  IC50: 131 µM
  Cytotoxicity A549 Ratio (IC50 cytotoxicity/IC50 ClpP): 5.33
[5]
  Growth delay in presence of nitric oxide stress: did not show any significant effect
[1]
  Inhibition (%) at 200 μM E. coli ClpP: 91.2%
[1]; [9]
  IC50: 24.6 µM
[1]; primary screen, 200 µM
  E. coli ClpP inhibition [%] in the primary screen: 91.16% and > 90%
[6]; WT E. coli, 100 μM compound
  Bacterial growth in absence of NO• stress: clearly influenced
[7]
  SPR signal (resonance units, RU): high RU values

## Cn1c(=O)c2c(ncn2C)n(C)c1=O [caffeine]
[7]
  Covalent / irreversible binding to ClpP by SPR: did not show any interaction

## N.N.O=C([O-])C1(C(=O)[O-])CCC1.[Pt+2] [carboplatin]
[1]; primary screen, 200 µM
  E. coli ClpP inhibition [%] in the primary screen: 5.4%

## CO[C@@]1(NC(=O)C2SC(=C(C(N)=O)C(=O)O)S2)C(=O)N2C(C(=O)O)=C(CSc3nnnn3C)CS[C@@H]21 (stereo partly shown) [cefotetan]
[1]
  inhibition at 200 µM: -4.6 to 19.3%

## CO/N=C(\C(=O)N[C@@H]1C(=O)N2C(C(=O)O)=C(CSc3nc(=O)c(=O)[nH]n3C)CS[C@H]12)c1csc(N)n1 [ceftriaxone]
[1]
  inhibition at 200 µM: -4.6 to 19.3%

## N=C(N)N/N=C/c1c(Cl)cccc1Cl [guanabenz]
[1]; [9]
  E. coli ClpP IC50: did not confirm as ClpP inhibitor
[1]; primary screen, 200 µM
  E. coli ClpP inhibition [%] in the primary screen: > 90%
[1]
  inhibition at 200 µM: 100%
